This passage reports IC50 and EC50 results from patent publication US20140357725A1, “TERPENE ANALOGUES AND USES THEREOF FOR TREATING NEUROLOGICAL CONDITIONS” (NEUROQUEST INC., priority 2011, published 2014).

For one experiment, the target named is T1, TRPV1 (Homo sapiens, UniProt Q8NER1).
T1 construct: expressed in transfected cells; host or cells: HEK-TRPV cells
In words: TRPV1 assay, calcium imaging. In kind it is cell-based. Conditions: Ca2+ imaging after 1 μM capsaicin, HEK-TRPV cells. As for the experimental part: Briefly, cells were seeded into poly-L-lysine-coated, glass-bottom, 24-well plates (1×10^5 cells/well) and incubated overnight under standard culture conditions to achieve the desired confluency. Culture media was removed and cells were washed twice with HBS prior to incubation for 15 to 60 min at 37° C. with a labelling mixture comprised of Fura-2-AM and pluronic acid in HBS. Data collection occurred over an eight minute period and followed the same general sequence. Following loading, cells were stimulated by addition of 1 μM of capsaicin agonist for 2 min, after which a concentration series of the test sample (e.g. (0.5, 5, 10, 50 μg/ml) was added and imaging continued for an additional 5 min. Capsazepine (20 μM) served as a known reference antagonist, while cells that were mock-treated or received vehicle (e.g., DMSO) alone served as negative controls. For imaging, plates were placed on the stage of an inverted epifluorescence microscope (e.g., Axiovert 200, Zeiss) equipped with a CCD digital camera (e.g., Axiocam MRm, Zeiss). For each well of the plate, a sequence of image pairs (excitation at 340 nm and 380 nm) were collected to capture intracellular calcium flux. Image sequences were analyzed in ImageJ (NIH) and average pixel intensities calculated for six representative cells in each test condition to achieve mean fluorescence.

The test system of the next experiment is zebrafish embryos. As to the kind of experiment: Zebrafish response assay (embryonic touch response/swim behaviour, complete anaesthesia). In kind it is in vivo. Conditions: Danio rerio, 1.5 h; complete anaesthesia (scale 1) in 50% of embryos, 90 min at 28° C., 54 hpf AB wild type embryos. The source says: Briefly, the ZEA assay involved applying essential oils, fractions or individual compounds to developmentally staged zebrafish embryos followed by monitoring of embryonic touch response/swim behaviour and evaluation of the dose response relationship for each substance. Using a four point scale to describe the embryonic behaviours (Table 4), initial analysis focused on monitoring and recording these changes and evaluating the level of bioactivity. […] (optimal temperature for embryonic growth) in the diluted compound. • The four point scale (Table 4) was used to evaluate the touch response and swim behaviour for each embryo in all wells. • The effectiveness of the compound was based on its ability to generate complete anesthesia (scale: 1) in 50% of the embryos at a given concentration (EC50). • The EC50 values were calculated using GraphPad Prism® software to analyze the log (dose) response curves. The results are shown in Table 3, and in FIG. 3 as a dose response curve of zebrafish embryo assay, a percentage response versus percentage of compound present.

The subject of experiment [1] is voltage-gated Na+ channels. In words: Sodium (Na+) channel analysis in rat DRG neurons using whole cell patch-clamp. In kind it is cell-based. The method, then:
Isolated DRG neurons were suspended in primary neuron basal media and placed on glass coverslips for incubation in humidified atmosphere of 5% CO2 at 37° C. Coverslip carrying cells was transferred to the bath of an inverted microscope (Zeiss), continuously perfused with oxygenated artificial cerebro-spinal fluid (ACSF) containing (in mM) 124 NaCl, 2.5 KCl, 2 CaCl2, 1 MgSO4, 25 NaHCO3, 1 NaH2PO4, and 10 glucose, at a rate of 2-3 ml/min. Recording of whole-cell membrane currents were made at room temperature. Recording pipette (4-6 MO) was filled with internal solution containing (in mM) 145 K-gluconate, 5 NaCl, 1 MgCl2, 0.2 EGTA, 10 HEPES, 2 Mg-ATP, 0.1 Na-GTP, and 10 phosphocreatine. To isolate Na^+ currents, DRG neurons were superfused with ACSF containing tetraethylammonium chloride (TEA) 5 mM, cesium chloride (CsCl) 100 μM and cadmium chloride (CdCl) 1 mM, to block potassium and calcium currents. OBM compounds were freshly dissolved in ASCF containing TEA, CsCl and CdCl, prior application via the bath.
For recording Na^+ currents, cells were held at −60 mV before applying a conditioning hyperpolarizing step (50 ms) to −90 mv to reactivate the voltage-gated Na^+ channels. The conditioning pulse was followed by depolarizing (150 ms) test pulses to 50 mV in 10 mV increments. Na^+ currents were recorded in absence, after 3 min in presence of the drugs and after a recovery time of 3 min.
On the technique in general: The patch-clamp technique gives a direct electrical read-out from membranes.

The mark [2] stands for this setting: Na+ currents, rat DRG neurons, whole-cell patch clamp, 3 min in presence of drug, read-out: IC50.

What is called IC50 is the concentration at which inhibition is half-maximal. What is called EC50 is the concentration that produces a half-maximal response. The low end stands for an effect from little substance, the high end for a need for much substance.

Like-named read-outs stand apart in the source and are kept apart here.

T1 sequence (Q8NER1 whole entry, species assumed): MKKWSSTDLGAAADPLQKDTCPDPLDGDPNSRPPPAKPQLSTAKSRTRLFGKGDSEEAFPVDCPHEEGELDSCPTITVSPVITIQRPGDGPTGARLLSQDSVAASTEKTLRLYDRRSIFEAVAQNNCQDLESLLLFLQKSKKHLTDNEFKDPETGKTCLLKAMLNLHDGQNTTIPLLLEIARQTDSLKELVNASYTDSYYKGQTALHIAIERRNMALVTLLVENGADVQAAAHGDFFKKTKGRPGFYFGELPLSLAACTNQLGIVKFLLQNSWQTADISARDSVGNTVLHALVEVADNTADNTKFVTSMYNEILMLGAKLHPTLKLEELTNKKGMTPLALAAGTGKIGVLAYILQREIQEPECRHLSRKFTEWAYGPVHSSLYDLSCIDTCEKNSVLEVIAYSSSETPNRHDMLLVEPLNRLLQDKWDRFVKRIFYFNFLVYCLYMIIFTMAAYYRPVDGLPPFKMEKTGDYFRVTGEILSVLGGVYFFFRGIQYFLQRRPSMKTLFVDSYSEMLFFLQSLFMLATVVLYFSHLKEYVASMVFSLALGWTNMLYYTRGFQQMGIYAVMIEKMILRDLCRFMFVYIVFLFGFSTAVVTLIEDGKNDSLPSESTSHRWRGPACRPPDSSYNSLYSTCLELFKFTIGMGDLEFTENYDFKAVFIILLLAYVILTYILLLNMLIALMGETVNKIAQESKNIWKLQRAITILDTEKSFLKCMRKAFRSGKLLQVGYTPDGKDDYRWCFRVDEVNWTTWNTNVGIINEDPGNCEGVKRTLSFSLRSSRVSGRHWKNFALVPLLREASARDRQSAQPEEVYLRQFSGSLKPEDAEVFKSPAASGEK

Turning to `CC(C)=CCCC1(C)CC1CO` (centres unmarked) [OBM 2979, (2-methyl-2-(4-methylpent-3-en-1-yl)cyclopropyl)methanol], the IC50 entry is “agonist” at TRPV1; 100 to 1000 µM in experiment [1] (setting [2]); 700 µM in experiment [1] (percentage sodium current versus concentration, FIG. 1, read-out: Calculated IC50). In the experiment with zebrafish embryos, this compound registered an EC50 of 1 to 100 µM.
For the compound `COCC1CC1(C)CCC=C(C)C` (centres unmarked) [OBM 2989, 2-(methoxymethyl)-1-methyl-1-(4-methylpent-3-en-1-yl)cyclopropane], the EC50 in the experiment on zebrafish embryos was over 450 µM. Besides, the IC50 in experiment [1] (setting [2]) lay within 5000 to 10000 µM.
In the case of `CC(C)=CCCC1(C)CC1COCc1ccccc1` (centres unmarked) [OBM 2993], the EC50 with zebrafish embryos is over 450 µM. Further, the IC50 in experiment [1] (setting [2]) is under 10000 µM.
Take `CC(C)=CCCC1(C)CC1COCc1ccccc1Br` (centres unmarked) [OBM 2994, 1-bromo-2-(((2-methyl-2-(4-methylpent-3-en-1-yl)cyclopropyl)methoxy)methyl)benzene]: the EC50 in the experiment with zebrafish embryos is over 450 µM. Besides, the IC50 in experiment [1] (setting [2]) was under 10000 µM.
Turning to `CC(C)=CCCC1(C)CC1COCc1ccccc1Cl` (centres unmarked) [OBM 2995, 1-chloro-2-(((2-methyl-2-(4-methylpent-3-en-1-yl)cyclopropyl)methoxy)methyl)benzene], the EC50 in the experiment on zebrafish embryos is over 450 µM. The IC50 in experiment [1] (setting [2]) is under 10000 µM.
The like results for `CC(C)=CCCC1(c2ccccc2)CC1CO` (centres unmarked) [OBM 2999, (2-(4-methylpent-3-en-1-yl)-2-phenylcyclopropyl) methanol] were, in that order, 100 to 450 µM and 1000 to 5000 µM.
